Where two headings read alike, the source gives them in different places.
Molecular target: T1, Syk (Homo sapiens, UniProt P43405)
T1 construct: purchased Carna Biosciences
Experiment: Syk HTRF assay
Format: biochemical
Summary of the method: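 HTRF kinase assay in HEPES pH 7.6 buffer with MgCl2, DTT and Triton X100; start mix of 87.5 μM ATP and 80 nM biotinylated peptide, 1 h at room temperature. EDTA stop, then Eu-anti-phosphotyrosine/streptavidin-DyLight 647 detection, read as 665/615 nm emission ratio.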

[1] = read-out: Activity Level (Syk HTRF assay IC50)
[2] = activity levels A-D, read-out: Activity Level (IC50 in the Syk HTRF assay)
[3] = IC50 activity level, read-out: Activity Level

| SMILES | IC50 [1] | IC50 [2] | also measured |
| --- | --- | --- | --- |
| c1ccc(-c2cccc3nc(Nc4ccc5ncccc5c4)nn23)cc1 [compound 59, N-(5-phenyl-[1,2,4]triazolo[1,5-a]pyridin-2-yl)quinolin-6-amine] | 0.005 to 250 nM |  |  |
| COc1cncc(Nc2nc3cccc(N[C@H]4CC[C@@H](O)CC4)n3n2)c1 [Example 368, cis-4-(2-(5-methoxypyridin-3-ylamino)-[1,2,4]triazolo[1,5-a]pyridin-5-ylamino)cyclohexanol] |  | 500 to 1000 nM |  |
| OC1CCCN(Cc2cccc3nc(Nc4ccc(C(F)(F)F)cc4)nn23)C1 (stereo in doubt) [Example 299, (R)-1-((2-(4-(trifluoromethyl)phenylamino)-[1,2,4]triazolo[1,5-a]pyridin-5-yl)methyl)piperidin-3-ol] |  | 1000 to 10000 nM |  |
| CNC(=O)c1ccc(Nc2nc3cccc(NC4CCOCC4)n3n2)cc1 [Example 456, N-methyl-4-(5-(tetrahydro-2H-pyran-4-ylamino)-[1,2,4]triazolo[1,5-a]pyridin-2-ylamino)benzamide] |  |  | IC50 [3]: 1000 to 10000 nM |
| COc1ccc(Nc2nc3cccc(-c4ccccc4)n3n2)cn1 [compound 71, N-(6-methoxypyridin-3-yl)-5-phenyl-[1,2,4]triazolo[1,5-a]pyridin-2-amine] | 1000 to 10000 nM |  |  |
| OCC1CCN(c2cccc3nc(Nc4ccc(C(F)(F)F)cc4)nn23)CC1 [Example 346, (1-(2-(4-(trifluoromethyl)phenylamino)-[1,2,4]triazolo[1,5-a]pyridin-5-yl)piperidin-4-yl)methanol] |  | 1000 to 10000 nM |  |
| CC1(C)C(=O)Nc2cc(Nc3nc4cccc(NC5CCCNC5)n4n3)ccc21 (stereo in doubt) [Example 154, (S)-3,3-dimethyl-6-(5-(piperidin-3-ylamino)-[1,2,4]triazolo[1,5-a]pyridin-2-ylamino)indolin-2-one] | 0.005 to 250 nM |  |  |
| CN1C(=O)C(C)(C)c2ccc(Nc3nc4cccc(N[C@H]5CC[C@](C)(O)CC5)n4n3)cc21 [compound 110] | 0.005 to 250 nM |  |  |
| O=C1c2cc(Nc3nc4cccc(N[C@H]5CC[C@@H](O)CC5)n4n3)ccc2CN1CCO [Example 206, cis-6-(5-(4-hydroxycyclohexylamino)-[1,2,4]triazolo[1,5-a]pyridin-2-ylamino)-2-(2-hydroxyethyl)isoindolin-1-one] |  | 1000 to 10000 nM |  |
| OC[C@H]1CC[C@@H](Nc2cccc3nc(Nc4ccc(C(F)(F)F)cc4)nn23)CC1 [Example 410, cis-(4-(2-(4-(trifluoromethyl)phenylamino)-[1,2,4]triazolo[1,5-a]pyrridin-5-ylamino)cyclohexyl)methanol] |  |  | IC50 [3]: 0.005 to 250 nM |
| NCCN1Cc2ccc(-c3cccc4nc(Nc5ccccc5)nn34)cc2C1=O [Example 495, 2-(2-aminoethyl)-6-(2-(phenylamino)-[1,2,4]triazolo[1,5-a]pyridin-5-yl)isoindolin-1-one] |  |  | IC50 [3]: 1000 to 10000 nM |
| O[C@H]1CC[C@@H](Nc2cccc3nc(Nc4ccc(F)c(F)c4)nn23)CC1 [Example 311, cis-4-(2-(3,4-difluorophenylamino)-[1,2,4]triazolo[1,5-a]pyridin-5-ylamino)cyclohexanol] |  | 250 to 500 nM |  |
| Cc1ccc(Nc2nc3cccc(-c4ccc5nc(CO)[nH]c5c4)n3n2)cn1 [Example 285, (6-(2-(6-methylpyridin-3-ylamino)-[1,2,4]triazolo[1,5-a]pyridin-5-yl)-1H-benzo[d]imidazol-2-yl)methanol] |  | 0.005 to 250 nM |  |
| CNC(=O)c1ccc(Nc2nc3cccc(OC4CCNCC4)n3n2)cc1 [Example 284, N-methyl-4-(5-(piperidin-4-yloxy)-[1,2,4]triazolo[1,5-a]pyridin-2-ylamino)benzamide] |  | 1000 to 10000 nM |  |
| CNC(=O)c1ccc(Nc2nc3cccc(-c4ccccc4Cl)n3n2)cc1 [compound 22, 4-(5-(2-chlorophenyl)-[1,2,4]triazolo[1,5-a]pyridin-2-ylamino)-N-methylbenzamide] | 1000 to 10000 nM |  |  |
| FC(F)(F)c1ccc(Nc2nc3cccc(OC4CCNCC4)n3n2)cc1 [Example 352, 5-(piperidin-4-yloxy)-N-(4-(trifluoromethyl)phenyl)-[1,2,4]triazolo[1,5-a]pyridin-2-amine] |  | 1000 to 10000 nM |  |
| CNC(=O)c1ccc(Nc2nc3cccc(-c4ccc(-c5c[nH]cn5)cc4)n3n2)cc1 [compound 9, 4-(5-(4-(1H-imidazol-4-yl)phenyl)-[1,2,4]triazolo[1,5-a]pyridin-2-ylamino)-N-methylbenzamide] | 0.005 to 250 nM |  |  |
| CNC(=O)c1ccc(Nc2nc3cccc(-c4cc(Cl)cc(-c5ccccc5C(N)=O)c4)n3n2)cc1 [compound 5, 3′-chloro-5′-(2-(4-(methylcarbamoyl)phenylamino)-[1,2,4]triazolo[1,5-a]pyridin-5-yl)biphenyl-2-carboxamide] | 0.005 to 250 nM |  |  |
| O[C@H]1CC[C@@H](Nc2cccc3nc(Nc4ccc5[nH]nnc5c4)nn23)CC1 [Example 237, cis-4-(2-(1H-benzo[d][1,2,3]triazolo-5-ylamino)-[1,2,4]triazolo[1,5-a]pyridin-5-ylamino)cyclohexanol] |  | 0.005 to 250 nM |  |
| Cc1n[nH]c2cc(Nc3nc4cccc(NCC5CCOCC5)n4n3)ccc12 [Example 220, N^2-(3-methyl-1H-indazol-6-yl)-N^5-((tetrahydro-2H-pyran-4-yl)methyl)-[1,2,4]triazolo[1,5-a]pyridin-2,5-diamine] |  | 250 to 500 nM |  |

| SMILES | IC50 [1] | IC50 [2] | also measured |
| --- | --- | --- | --- |
| C[C@@H](CO)Cc1cccc2nc(Nc3ccccc3)nn12 [Example 479, (R)-2-methyl-3-(2-(phenylamino)-[1,2,4]triazolo[1,5-a]pyridin-5-yl)propan-1-ol] |  |  | IC50 [3]: 500 to 1000 nM |
| FC(F)(F)c1ccc(Nc2nc3cccc(OC[C@H]4CCCN4)n3n2)cc1 [Example 302, (R)-5-(pyrrolidin-2-ylmethoxy)-N-(4-(trifluoromethyl)phenyl)-[1,2,4]triazolo[1,5-a]pyridin-2-amine] |  | 1000 to 10000 nM |  |
| CN(C)c1cccc2nc(Nc3ccccc3)nn12 [Example 477, N^5,N^5-dimethyl-N^2-phenyl-[1,2,4]triazolo[1,5-a]pyridin-2,5-diamine] |  |  | IC50 [3]: 1000 to 10000 nM |
| CN(c1cccc2nc(Nc3ccc(C(F)(F)F)cc3)nn12)[C@H]1CC[C@@H](O)CC1 [Example 266, cis-4-(methyl(2-(4-(trifluoromethyl)phenylamino)-[1,2,4]triazolo[1,5-a]pyridin-5-yl)amino)cyclohexanol] |  | 1000 to 10000 nM |  |
| FC(F)(F)c1ccc(Nc2nc3cccc(-c4cnc5nc[nH]c5c4)n3n2)cc1 [Example 380, 5-(1H-imidazo[4,5-b]pyridin-6-yl)-N-(4-(trifluoromethyl)phenyl)-[1,2,4]triazolo[1,5-a]pyridin-2-amine] |  | 0.005 to 250 nM |  |
| O=C1NCc2ccc(-c3cccc4nc(Nc5ccccc5)nn34)cc21 [Example 500, 6-(2-(phenylamino)-[1,2,4]triazolo[1,5-a]pyridin-5-yl)-isoindolin-1-one] |  |  | IC50 [3]: 500 to 1000 nM |
| COCCN1Cc2cc(Nc3nc4cccc(N[C@H]5CC[C@@H](O)CC5)n4n3)ccc2C1=O [Example 174, cis-5-(5-(4-hydroxycyclohexylamino)-[1,2,4]triazolo[1,5-a]pyridin-2-ylamino)-2-(2-methoxyethyl)isoindolin-1-one] | 0.005 to 250 nM |  |  |
| CC1(C)C(=O)Nc2cc(Nc3nc4cccc(OC5CCOC5)n4n3)ccc21 (stereo in doubt) [Example 134, (R)-3,3-dimethyl-6-(5-(tetrahydrofuran-3-yloxy)-[1,2,4]triazolo[1,5-a]pyridin-2-ylamino)indolin-2-one] | 0.005 to 250 nM |  |  |
| c1ccc(Nc2nc3cccc(-c4ccc5nc[nH]c5c4)n3n2)cc1 [Example 514, 5-(1H-benzo[d]imidazol-6-yl)-N-phenyl-[1,2,4]triazolo[1,5-a]pyridin-2-amine] |  |  | IC50 [3]: 0.005 to 250 nM |
| Cn1ncc2ccc(Nc3nc4cccc(CC5CCOCC5)n4n3)cc21 [Example 160, N-(1-methyl-1H-indazol-6-yl)-5-((tetrahydro-2H-pyran-4-yl)methyl)-[1,2,4]triazolo[1,5-a]pyridin-2-amine] | 0.005 to 250 nM |  |  |
| Cc1n[nH]c2ccc(Nc3nc4cccc(N[C@@H]5CCOC5)n4n3)cc12 [compound 115] | 250 to 500 nM |  |  |
| Cn1ncc2ccc(Nc3nc4cccc(N[C@H]5CCCNC5)n4n3)cc21 [Example 466, (S)-N^2-(1-methyl-1H-indazol-6-yl)-N^5-(piperidin-3-yl)-[1,2,4]triazolo[1,5-a]pyridine-2,5-diamine] |  |  | IC50 [3]: 0.005 to 250 nM |
| c1ccc(Nc2nc3cccc(-c4ccc5[nH]ncc5c4)n3n2)cc1 [Example 522, 5-(1H-indazol-5-yl)-N-phenyl-[1,2,4]triazolo[1,5-a]pyridin-2-amine] |  |  | IC50 [3]: 500 to 1000 nM |
| O[C@H]1CC[C@@H](Nc2cccc3nc(Nc4ccc5cn[nH]c5c4)nn23)CC1 [Example 365, cis-4-(2-(1H-indazol-6-ylamino)-[1,2,4]triazolo[1,5-a]pyridin-5-ylamino)cyclohexanol] |  | 0.005 to 250 nM |  |
| CC(c1cccc2nc(Nc3ccc4c(c3)NC(=O)C4(C)C)nn12)C1CCOCC1 (stereo not drawn) [Example 159, 3,3-dimethyl-6-(5-(1-(tetrahydro-2H-pyran-4-yl)ethyl)-[1,2,4]triazolo[1,5-a]pyridin-2-ylamino)indolin-2-one] | 0.005 to 250 nM |  |  |
| c1ccc(Nc2nc3cccc(CC4CCCNC4)n3n2)cc1 (stereo not drawn) [Example 478, N-phenyl-5-(piperidin-3-ylmethyl)-[1,2,4]triazolo[1,5-a]pyridin-2-amine] |  |  | IC50 [3]: 250 to 500 nM |
| COc1cncc(Nc2nc3cccc(-c4ccccc4)n3n2)c1 [compound 38, N-(5-methoxypyridin-3-yl)-5-phenyl-[1,2,4]triazolo[1,5-a]pyridin-2-amine] | 500 to 1000 nM |  |  |
| CC(C)Nc1cccc2nc(Nc3ccc(C(F)(F)F)cc3)nn12 [Example 330, N^5-isopropyl-N^2-(4-(trifluoromethyl)phenyl)-[1,2,4]triazolo[1,5-a]pyridin-2,5-diamine] |  | 1000 to 10000 nM |  |
| CCN1CCC(Cc2cccc3nc(Nc4ccc(C(F)(F)F)cc4)nn23)CC1 [Example 407, 5-((1-ethylpiperidin-4-yl)methyl)-N-(4-(trifluoromethyl)phenyl)-[1,2,4]triazolo[1,5-a]pyridin-2-amine] |  |  | IC50 [3]: 500 to 1000 nM |

Source: US8299056B2 (Signal Pharmaceuticals, LLC, priority 2008, dated 2012)
